The test system of data set [1] is EAE in female Dark Agouti (DA) rats. Kind of data set: Experimental autoimmune encephalomyelitis (EAE) MS model in rats. The class given is in vivo, rat. As to conditions: FIG. 1. How it is done: EAE was induced day 0 in female Dark Agouti (DA) rats with subcutaneous injection of spinal cord homogenate (SCH, approximately 2 mg, from naive rats) emulsified in incomplete Freunds adjuvant (IFA, total volume 100 ul per rat) at the base of the tail. Disease was evaluated daily from day 5 until the end of the experiment (day 22) according to following criteria: 0=healthy, 1=tail weakness, 2=tail paralysis, 3=tail paralysis and mild waddle, 4=tail paralysis and severe waddle, 5=tail paralysis and paralysis of one limb, 6=tail paralysis and paralysis of both hind limbs, 7=tetraparesis or paralysis of three limbs, and 8=premorbid or dead. Statistical analysis was performed using Prism 5 for Mac OS X (GraphPad Software, San Diego, Calif., USA).
Treatment was initiated day 0 after EAE induction with following treatment injections administered day 3, 6, and 9. The dose was administered as a 500 uL corn oil solution subcutaneously at the lower back. Treatment groups were mixed in all cages to avoid cage effects.
Control (vehicle, corn oil, Sigma Aldrich), 11 animals
Cyclosporin A (positive control, Sigma Aldrich), 10 mg/kg, first dissolved in 70% EtOH to 50 mg/mL, 11 animals
Compound 9 (N-acetyl-N-phenyl-4-acetoxy-5-chloro-1,2-dihydro-1-methyl-2-oxo-quinoline-3-carboxamide, Example 74), 1 mg/kg, 10 animals

A short description of data set [2]: Solubility measurements in 0.2 M phosphate buffer pH 7.4. The class given is physicochemical. The conditions noted are these: 0.2 M phosphate buffer pH 7.4, ambient temperature, results from two dilutions; for Solubility: 24 h; for solubility at 24 h: phosphate buffer, pH 7.4, aqueous buffer, thermodynamic from solid. How it is done:
Solubilities of a di- and a mono-acylated compound were measured in 0.2 M phosphate buffer pH 7.4 and compared with the solubility of the corresponding non-acylated compound.
Saturated compound solutions were prepared by mixing the compounds and the buffer solution at ambient temperature for 24 h followed by separation of the aqueous solution by centrifugation. Standard solutions of compounds (1.00 mg/mL) were prepared in DMSO.
The compound concentrations were measured by HPLC-MS/UV (Waters Alliance 2790 Separations Module/996 PDA detector/Micromass Quattro Micro) after appropriate dilutions of the aqueous saturated solutions ( 1/10 and 1/100) and the standard solutions ( 1/100, 1/200, and 1/1000), respectively, with mobile phase solvent.

The next data set addresses T1, human AhR (Homo sapiens, UniProt P35869).
T1 construct: host or cells: GeneBLAzer CYP1A1-bla LS-180 cell line
T1 sequence (P35869 11-848): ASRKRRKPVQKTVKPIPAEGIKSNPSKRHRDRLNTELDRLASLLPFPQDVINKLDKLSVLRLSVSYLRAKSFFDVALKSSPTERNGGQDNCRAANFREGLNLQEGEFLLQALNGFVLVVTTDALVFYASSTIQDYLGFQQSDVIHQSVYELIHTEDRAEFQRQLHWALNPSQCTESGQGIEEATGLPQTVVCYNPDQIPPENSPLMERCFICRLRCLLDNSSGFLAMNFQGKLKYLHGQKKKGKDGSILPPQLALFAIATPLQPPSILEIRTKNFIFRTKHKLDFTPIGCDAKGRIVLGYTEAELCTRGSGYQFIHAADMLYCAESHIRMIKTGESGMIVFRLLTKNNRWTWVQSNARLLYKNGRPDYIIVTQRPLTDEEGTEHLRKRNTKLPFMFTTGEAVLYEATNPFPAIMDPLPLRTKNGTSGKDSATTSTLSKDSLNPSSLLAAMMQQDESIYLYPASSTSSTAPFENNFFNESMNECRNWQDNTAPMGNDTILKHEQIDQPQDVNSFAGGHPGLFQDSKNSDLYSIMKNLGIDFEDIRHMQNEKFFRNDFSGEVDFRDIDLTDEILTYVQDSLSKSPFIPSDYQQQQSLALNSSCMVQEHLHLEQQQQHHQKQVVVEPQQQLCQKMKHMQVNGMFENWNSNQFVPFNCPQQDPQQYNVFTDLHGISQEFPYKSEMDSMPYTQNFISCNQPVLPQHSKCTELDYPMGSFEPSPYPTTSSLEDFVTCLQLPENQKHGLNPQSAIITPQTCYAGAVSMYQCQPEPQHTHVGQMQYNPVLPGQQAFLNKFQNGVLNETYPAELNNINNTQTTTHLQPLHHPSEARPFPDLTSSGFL
Kind of data set: Activation of human AhR, GeneBLAzer CYP1A1-bla LS-180 beta-lactamase reporter-gene assay. The class given is cell-based. As to conditions: assay reference compound (control activator). The method, then:
Activation of the aryl hydrocarbon receptor can be measured in cell-based reporter-gene assays, which consist of cell lines containing the aryl hydrocarbon recptor and transfected with a reporter gene regulated by activated Ahr via an XRE (xenobiotic response element). AhR activation will thus result in an enhanced expression of the reporter protein (e.g. luciferase) which functional activity can be measured.
Activation of human AhR was measured in the GeneBLAzer® CYP1A1-bla LS-180 cell line (Invitrogen Corporation, Madison, www.invitrogen.com/drugdiscovery) using a beta-lactamase reporter gene (bla) combined with a FRET-enabled substrate sensitive to bla expression.
CYP1A1-bla LS-180 cells are harvested and suspended in Assay Media (OPTI-MEM, 0.5% dialyzed FBS, 0.1 mM NEAA, 1 mM Sodium Pyruvate, 100 U/mL/100 μg/mL Pen/Strep) to a concentration of 625,000 cells/mL. 32 μL of cell suspension (20,000 cells) is added to each well of a 384-well Poly-D-Lysine assay plate. Cells in assay media are incubated for 16-24 hours in the plate at 37° C./5% CO2 in a humidified incubator. 4 μL of a 10× serial dilution of beta-naphthoflavone (control activator starting concentration, 100,000 nM) or compounds are added to appropriate wells. 4 μL of Assay Media is added to all wells to bring the final assay volume to 40 μL. […] The plate is read on a fluorescence plate reader. […]

Molecules are shown by their SMILES. In brackets after ≈: the same amount, converted by molar mass.

With `CC(=O)Oc1c(C(=O)N(C(C)=O)c2ccccc2)c(=O)n(C)c2cccc(Cl)c12` [Compound 9, N-acetyl-N-phenyl-4-acetoxy-5-chloro-1,2-dihydro-1-methyl-2-oxo-quinoline-3-carboxamide], the “severity of the first disease period after discontinuation of treatment” value in data set [1] (1 mg/kg s.c. day 0, 3, 6 and 9, versus vehicle control) is given as “lower than for vehicle control treated animals”. For the same compound, in data set [1] (1 mg/kg s.c. in corn oil day 0, 3, 6 and 9, DA rats), the “EAE development (clinical score)” value was “efficiently prevented EAE development”.

In data set [2], `CC(=O)Oc1c(C(=O)N(C(C)=O)c2ccccc2)c(=O)n(C)c2ccccc12` [Compound 1, N-acetyl-N-phenyl-4-acetoxy-1,2-dihydro-1-methyl-2-oxo-quinoline-3-carboxamide] displayed a Solubility of 38 µg/mL (≈ 100 µM) and a solubility at 24 h of 21 µg/mL (≈ 55.5 µM). For the compound `Cn1c(=O)c(C(=O)Nc2ccccc2)c(O)c2ccccc21` [Compound 3, N-phenyl-1,2-dihydro-4-hydroxy-1-methyl-2-oxo-quinoline-3-carboxamide, reference compound], the solubility at 24 h in data set [2] was below 1 µg/mL. Take `CC(=O)Oc1c(C(=O)Nc2ccccc2)c(=O)n(C)c2ccccc12` [Compound 2, N-phenyl-4-acetoxy-1,2-dihydro-1-methyl-2-oxo-quinoline-3-carboxamide]: in data set [2], the Solubility was found to be 221 µg/mL (≈ 657 µM) and the solubility at 24 h came out at 186 µg/mL (≈ 553 µM). With `O=c1cc(-c2ccccc2)oc2ccc3ccccc3c12` [beta-naphthoflavone], it took 2090 nM to reach a half-maximal effect at human AhR (EC50).
